# Literature values, collected in US20100209332A1, “Nonaqueous Chlorine Dioxide-Generating Compositions and Methods Related Thereto” (BASF Catalysts LLC, priority 2009, published 2010).
# “And” between values parts separate entries of the source, which are not always exact repeats. Equal entries are not always repeated.
# Conditions: sources: † clippercontrols.com URL, § Handbook of Chemistry and Physics, 52nd Ed.
row,"Dielectric Constant, at 18-25 deg C.",Structure (SMILES)
1,"17.1-17.8^†,§",CCCCO [Butyl alcohol]
2,"2.5^†,§",CCCCCCCC/C=C\CCCCCCCC(=O)O [Oleic acid]
3,3.2^†,CCCCCCCC(=O)O [Octanoic acid]

# More lines, now with the values behind:
row,Structure (SMILES),"Dielectric Constant, at 18-25 deg C."
1,CC(C)O [Isopropanol],18.3 and 20.1
2,O [Water],80.4 and 78.5
3,CC(O)CO (stereo not shown) [Propylene glycol],"32^†,§"
4,OCC(O)CO [Glycerine],"42.5^†,§"
